US6652890B2, “Tea catechins as cancer specific proliferation inhibitors” (Purdue Research Foundation, priority 1999, dated 2003)
Values joined by “and” are separate entries in the source; they are usually repeats but may differ in a detail not shown here. Identical values can stand only once. Like-named read-outs stand apart in the source and are kept apart here.

Molecular target: T1, tNOX activity of intact 4T1 mouse mammary cells (Mus musculus, UniProt Q8R0Z2)
T1 construct: endogenous in cells; host or cells: 4T1 mouse mammary carcinoma cells (intact)
T1 sequence (Q8R0Z2 1-598): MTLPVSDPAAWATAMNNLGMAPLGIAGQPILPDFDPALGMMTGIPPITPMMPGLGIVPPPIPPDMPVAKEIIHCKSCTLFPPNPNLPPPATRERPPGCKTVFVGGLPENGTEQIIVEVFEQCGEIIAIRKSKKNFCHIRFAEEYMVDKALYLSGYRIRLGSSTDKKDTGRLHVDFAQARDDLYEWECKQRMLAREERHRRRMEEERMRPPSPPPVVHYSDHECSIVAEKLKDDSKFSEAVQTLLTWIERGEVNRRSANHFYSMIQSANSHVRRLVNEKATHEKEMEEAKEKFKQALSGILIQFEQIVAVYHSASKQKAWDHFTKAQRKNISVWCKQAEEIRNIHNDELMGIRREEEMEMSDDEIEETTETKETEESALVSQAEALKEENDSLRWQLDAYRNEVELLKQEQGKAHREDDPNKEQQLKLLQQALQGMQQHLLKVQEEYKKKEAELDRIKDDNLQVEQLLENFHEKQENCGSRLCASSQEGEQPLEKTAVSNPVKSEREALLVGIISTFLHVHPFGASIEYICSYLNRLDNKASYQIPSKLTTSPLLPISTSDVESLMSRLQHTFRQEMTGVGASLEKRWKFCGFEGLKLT
Test: Inhibition of tNOX (NADH oxidase) activity of intact 4T1 cells
Format: cell-based
Procedure: A mouse mammary tumor subpopulation line 4T1 arising from a BALB/cf C3H mouse was grown in DME-10, Dulbecco's modified Eagle's medium supplemented with 5% fetal calf serum, 5% newborn calf serum, 1 mM mixed non-essential amino acids, 2 mM L-glutamine, penicillin (100 units/ml), and streptomycin (100 μg/ml) (Miller et al., 1987, Brit. J. Can. 56:561-569 and Miller et al., 1990, Invasion Metastasis 10:101-112).
NADH oxidase activity was determined as the disappearance of NADH measured at 340 nm in a reaction mixture containing 25 mM Tris-Mes buffer (pH 7.2), 1 mM KCN, and 150 μM NADH at 37° C. Activity was measured using a Hitachi U3210 spectrophotometer with stirring and continuous recording over two intervals of 5 min each. A millimolar extinction coefficient of 6.22 was used to determine specific activity.
NADH oxidase activity was determined as the disappearance of NADH measured at 340 nm in a reaction mixture containing 25 mM Tris-Mes buffer (pH 7.2), 1 mM KCN, and 150 μM NADH at 37° C. Activity was measured at 340 nm with reference at 430 nm using an SLM Aminco DW-2000 spectrophotometer (Milton Roy, Rochester, N.Y.) in the dual beam mode of operation with stirring and continuous recording over two intervals of 5 min each. A millimolar extinction coefficient of 6.22 was used to determine specific activity.

tNOX inhibition by EGCg, EC>90 (EC concentration 0 M): 10^−7 M
tNOX inhibition by EGCg, EC>90 (EC concentration 10^−4 M): 10^−8 M
tNOX inhibition by EGCg, EC>90 (EC concentration 10^−6 M): 10^−8 M
tNOX inhibition by EGCg, EC>90 (EC concentration 10^−8 M): 10^−7 M
EC50 (in the presence of 10^−4 M EC, read-out: EC50 for inhibition of the drug-responsive component of the plasma membrane NADH oxidase): 2 nM
EC50 (read-out: tNOX inhibition by EGCg, EC50, EC concentration 0 M): ~10 nM and 10 nM
EC50 (read-out: tNOX inhibition by EGCg, EC50, EC concentration 10^−4 M): 0.5 nM
EC50 (read-out: tNOX inhibition by EGCg, EC50, EC concentration 10^−6 M): 1 nM
EC50 (read-out: tNOX inhibition by EGCg, EC50, EC concentration 10^−8 M): 10 nM
Enhancement of the efficacy of EGCg inhibition (with both 10^−6 and 10^−4 M EC): ≥ 10 fold
Substance: (−) - epigallocatechin gallate [EGCg]
